In patent US20240199546A1, “INHIBITORS OF SOLUTE CARRIER FAMILY 6A MEMBER 19 (SLC6A19) AND METHODS OF USE THEREOF” (Maze Therapeutics, Inc., priority 2022, published 2024) one finds IC50 data, which are given here for 32 compounds.

For this test, the target named is T1, human SLC6A19 and TMEM27 (Homo sapiens, UniProt Q695T7).
T1 construct: expressed in transfected cells
T1 sequence (Q695T7 1-634): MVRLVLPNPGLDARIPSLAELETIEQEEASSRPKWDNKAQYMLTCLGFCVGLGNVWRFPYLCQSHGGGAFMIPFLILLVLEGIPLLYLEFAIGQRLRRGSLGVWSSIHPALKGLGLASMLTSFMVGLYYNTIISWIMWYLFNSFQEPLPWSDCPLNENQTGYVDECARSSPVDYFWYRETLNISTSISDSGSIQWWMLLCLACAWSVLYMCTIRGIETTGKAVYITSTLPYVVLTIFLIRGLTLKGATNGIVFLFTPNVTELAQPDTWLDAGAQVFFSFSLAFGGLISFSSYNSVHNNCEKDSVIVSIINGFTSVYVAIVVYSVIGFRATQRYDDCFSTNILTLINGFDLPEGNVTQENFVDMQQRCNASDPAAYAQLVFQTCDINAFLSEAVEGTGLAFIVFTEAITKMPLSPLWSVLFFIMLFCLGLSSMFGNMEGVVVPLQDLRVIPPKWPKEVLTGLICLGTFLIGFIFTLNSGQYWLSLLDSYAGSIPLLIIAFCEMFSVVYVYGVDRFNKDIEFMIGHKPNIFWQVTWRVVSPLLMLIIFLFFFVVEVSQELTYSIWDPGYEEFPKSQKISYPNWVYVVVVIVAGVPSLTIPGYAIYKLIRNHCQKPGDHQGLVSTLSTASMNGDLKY
T1 sequence (Q9HBJ8 15-222 partner): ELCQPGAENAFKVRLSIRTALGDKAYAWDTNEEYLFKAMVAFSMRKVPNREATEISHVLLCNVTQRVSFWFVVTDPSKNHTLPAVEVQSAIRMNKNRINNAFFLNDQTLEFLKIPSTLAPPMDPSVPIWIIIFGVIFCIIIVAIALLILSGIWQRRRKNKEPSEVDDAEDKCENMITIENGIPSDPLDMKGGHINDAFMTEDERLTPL
Briefly: Radiolabelled (3H) leucine uptake in CHO cells with doxycycline-inducible expression of human SLC6A19 and TMEM27 (Example B-1). It is filed as cell-based. As to conditions: CHO cells with doxycycline-inducible expression of human SLC6A19 and TMEM27, read-out: SLC6A19_Radioligand Uptake Assay IC50. Summed up: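 CHO cells were induced with doxycycline for 18 h at 37 °C, washed in HBSS, then exposed to compounds for 1 h: 8-point, 3-fold dilutions in duplicate, 0.5% DMSO final. Uptake measured by scintillation counting after 2 h shaking. Activity normalized with positive control as 0% and DMSO as 100%.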
On to `Cc1cc(COc2cc3[nH]c(CNC(=O)C4(CO)CC4)cc3cc2Cl)on1` [Compound 250, N-((5-chloro-6-((3-methylisoxazol-5-yl)methoxy)-1H-indol-2-yl)methyl)-1-(hydroxymethyl)cyclopropane-1-carboxamide], for which the half-maximal inhibitory concentration (IC50) was 383 nM.

As for `Cc1cc(COc2cc3[nH]c(CNC(=O)C4(O)CC4)cc3cc2Cl)on1` [Compound 251, N-((5-chloro-6-((3-methylisoxazol-5-yl)methoxy)-1H-indol-2-yl)methyl)-1-hydroxycyclopropane-1-carboxamide], the concentration for half-maximal inhibition (IC50) came to 194 nM. Next, `Cc1cc(COc2cc3[nH]c(CNC(=O)[C@H]4C[C@H](O)C4)cc3cc2Cl)on1` [Compound 252, (1R,3R)-N-((5-chloro-6-((3-methylisoxazol-5-yl)methoxy)-1H-indol-2-yl)methyl)-3-hydroxycyclobutane-1-carboxamide]: 628 nM; `Cc1cc(COc2cc3[nH]c(CNC(=O)[C@H]4C[C@@H](O)C4)cc3cc2Cl)on1` [Compound 253, (1S,3S)-N-((5-chloro-6-((3-methylisoxazol-5-yl)methoxy)-1H-indol-2-yl)methyl)-3-hydroxycyclobutane-1-carboxamide]: 606 nM; `O=C(NCc1cc2cc(Cl)c(OCc3cscn3)cc2[nH]1)C1(CO)CC1` [Compound 254, N-((5-chloro-6-(thiazol-4-ylmethoxy)-1H-indol-2-yl)methyl)-1-(hydroxymethyl)cyclopropane-1-carboxamide]: 294 nM.

Take `O=C(NCc1cc2cc(F)c(OCc3cscn3)cc2[nH]1)C1(CO)CC1` [Compound 255, N-((5-fluoro-6-(thiazol-4-ylmethoxy)-1H-indol-2-yl)methyl)-1-(hydroxymethyl)cyclopropane-1-carboxamide]: the half-inhibitory concentration (IC50) is 1360 nM. Next, `Cc1cc(COc2cc3[nH]c(CNC(=O)[C@@H](C)O)cc3cc2Cl)on1` [Compound 256, (R)-N-((5-chloro-6-((3-methylisoxazol-5-yl)methoxy)-1H-indol-2-yl)methyl)-2-hydroxypropanamide]: 140 nM. Then `C[C@@H](O)C(=O)NCc1cc2cc(Cl)c(OCc3cscn3)cc2[nH]1` [Compound 257, (R)-N-((5-chloro-6-(thiazol-4-ylmethoxy)-1H-indol-2-yl)methyl)-2-hydroxypropanamide], with 756 nM; and `Cc1cc(COc2cc3[nH]c(CNC(=O)CC4COC4)cc3cc2Cl)on1` [Compound 258, N-((5-chloro-6-((3-methylisoxazol-5-yl)methoxy)-1H-indol-2-yl)methyl)-2-(oxetan-3-yl)acetamide], with 2670 nM.

`O=C(NCc1cc2cc(Cl)c(OCc3cscn3)cc2[nH]1)[C@H]1CCO1` [Compound 259, (R)-N-((5-chloro-6-(thiazol-4-ylmethoxy)-1H-indol-2-yl)methyl)oxetane-2-carboxamide]: the 50% inhibitory concentration (IC50) came to 121 nM. Then `CC1(C(=O)NCc2cc3cc(Cl)c(OCc4cscn4)cc3[nH]2)CCO1` (centres unmarked) [Compound 260, N-((5-chloro-6-(thiazol-4-ylmethoxy)-1H-indol-2-yl)methyl)-2-methyloxetane-2-carboxamide], with 2350 nM; and `O=C(NCc1cc2cc(Cl)c(OCc3cscn3)cc2[nH]1)C1COC1` [Compound 261, N-((5-chloro-6-(thiazol-4-ylmethoxy)-1H-indol-2-yl)methyl)oxetane-3-carboxamide], with 105 nM.

Turning to `Cc1cc(COc2cc3[nH]c(CNC(=O)C4CCO4)cc3cc2F)on1` (centres unmarked) [Compound 262, N-((5-fluoro-6-((3-methylisoxazol-5-yl)methoxy)-1H-indol-2-yl)methyl)oxetane-2-carboxamide], the concentration for half-maximal inhibition (IC50) is 472 nM. Then `COCC(=O)NCc1cc2cc(F)c(OCc3cc(C)no3)cc2[nH]1` [Compound 263, N-((5-fluoro-6-((3-methylisoxazol-5-yl)methoxy)-1H-indol-2-yl)methyl)-2-methoxyacetamide], with 174 nM; and `O=C(NCc1cc2cc(F)c(OCc3cscn3)cc2[nH]1)C1CCO1` (centres unmarked) [Compound 264, N-((5-fluoro-6-(thiazol-4-ylmethoxy)-1H-indol-2-yl)methyl)oxetane-2-carboxamide], with 243 nM; and `COCC(=O)NCc1cc2cc(F)c(OCc3cscn3)cc2[nH]1` [Compound 265, N-((5-fluoro-6-(thiazol-4-ylmethoxy)-1H-indol-2-yl)methyl)-2-methoxyacetamide], with 120 nM. Then `O=C(NCc1cc2cc(Cl)c(OCc3cscn3)cc2[nH]1)[C@H]1CCCO1` [Compound 266, (R)-N-((5-chloro-6-(thiazol-4-ylmethoxy)-1H-indol-2-yl)methyl)tetrahydrofuran-2-carboxamide], with 142 nM; and `O=C(NCc1cc2cc(Cl)c(OCc3cscn3)cc2[nH]1)C1CCOC1` (centres unmarked) [Compound 267, N-((5-chloro-6-(thiazol-4-ylmethoxy)-1H-indol-2-yl)methyl)tetrahydrofuran-3-carboxamide], with 720 nM.

Turning to `O=C(NCc1cc2cc(Cl)c(OCc3cscn3)cc2[nH]1)C1CCCO1` (centres unmarked) [Compound 268, N-((5-chloro-6-(thiazol-4-ylmethoxy)-1H-indol-2-yl)methyl)tetrahydrofuran-2-carboxamide], the IC50 was 421 nM. Then `O=C(NCc1cc2cc(Cl)c(OCc3cscn3)cc2[nH]1)C1CCO1` (centres unmarked) [Compound 269, N-((5-chloro-6-(thiazol-4-ylmethoxy)-1H-indol-2-yl)methyl)oxetane-2-carboxamide], with 66.6 nM; and `COCC(=O)NCc1cc2cc(Cl)c(OCc3cscn3)cc2[nH]1` [Compound 270, N-((5-chloro-6-(thiazol-4-ylmethoxy)-1H-indol-2-yl)methyl)-2-methoxyacetamide], with 110 nM; and `COC(C)C(=O)NCc1cc2cc(Cl)c(OCc3cscn3)cc2[nH]1` (centres unmarked) [Compound 271, N-((5-chloro-6-(thiazol-4-ylmethoxy)-1H-indol-2-yl)methyl)-2-methoxypropanamide], with 515 nM. Then `COCC(=O)NCc1cc2cc(Cl)c(OCc3cc(C)no3)cc2[nH]1` [Compound 272, N-((5-chloro-6-((3-methylisoxazol-5-yl)methoxy)-1H-indol-2-yl)methyl)-2-methoxyacetamide], with 78.9 nM. Then `Cc1cc(COc2cc3[nH]c(CNC(=O)C4(C)COC4)cc3cc2Cl)on1` [Compound 273, N-((5-chloro-6-((3-methylisoxazol-5-yl)methoxy)-1H-indol-2-yl)methyl)-3-methyloxetane-3-carboxamide], with 567 nM; and `Cc1cc(COc2cc3[nH]c(CNC(=O)C4COC4)cc3cc2Cl)on1` [Compound 274, N-((5-chloro-6-((3-methylisoxazol-5-yl)methoxy)-1H-indol-2-yl)methyl)oxetane-3-carboxamide], with 175 nM. Consider `Cc1cc(COc2cc3[nH]c(CNC(=O)C4(C#N)COC4)cc3cc2Cl)on1` [Compound 275, N-((5-chloro-6-((3-methylisoxazol-5-yl)methoxy)-1H-indol-2-yl)methyl)-3-cyanooxetane-3-carboxamide], for which the half-inhibitory concentration (IC50) turned out to be 350 nM.

On to `Cc1cc(COc2cc3[nH]c(CNC(=O)[C@@H]4CCO4)cc3cc2Cl)on1` [Compound 276, (S)-N-((5-chloro-6-((3-methylisoxazol-5-yl)methoxy)-1H-indol-2-yl)methyl)oxetane-2-carboxamide], for which the IC50 was determined as 94 nM. Then `CC1(C(=O)NCc2cc3cc(Cl)c(OCc4cscn4)cc3[nH]2)COC1` [Compound 277, N-((5-chloro-6-(thiazol-4-ylmethoxy)-1H-indol-2-yl)methyl)-3-methyloxetane-3-carboxamide], with 279 nM. Then `Cc1cc(COc2cc3[nH]c(CNC(=O)C4CCO4)cc3cc2Cl)on1` (centres unmarked) [Compound 278, N-((5-chloro-6-((3-methylisoxazol-5-yl)methoxy)-1H-indol-2-yl)methyl)oxetane-2-carboxamide], with 108 nM; and `COCC1(C(=O)NCc2cc3cc(Cl)c(OCc4cscn4)cc3[nH]2)CC1` [Compound 279, N-((5-chloro-6-(thiazol-4-ylmethoxy)-1H-indol-2-yl)methyl)-1-(methoxymethyl)cyclopropane-1-carboxamide], with 383 nM; and `C[C@H](O)C(=O)NCc1cc2cc(F)c(OCc3cscn3)cc2[nH]1` [Compound 281, (S)-N-((5-fluoro-6-(thiazol-4-ylmethoxy)-1H-indol-2-yl)methyl)-2-hydroxypropanamide], with 2280 nM.

`C[C@@H](O)C(=O)NCc1cc2cc(F)c(OCc3cscn3)cc2[nH]1` [Compound 282, (R)-N-((5-fluoro-6-(thiazol-4-ylmethoxy)-1H-indol-2-yl)methyl)-2-hydroxypropanamide]: the IC50 was found to be 2670 nM.

By IC50 is commonly meant the concentration needed to halve the response being measured.
